Laboratory results from paper PMC10321319 (Nature, 2022).
Converted amounts (≈) assume the structure as drawn. Read-outs that look alike come from different tables or passages of the source. Positions of bridges follow the written chain, without caps; N, C: chain ends. Non-standard residues stand in square brackets, D forms with d. Residues, ends and D or L forms follow the SMILES beside them. *: point of attachment. Octanoyl(3-OH) = CCCCCC(O)CC(=O)*; Decanoyl = CCCCCCCCCC(=O)*; Nonanoyl = CCCCCCCCC(=O)*; X1 = CC[C@H](C)CCCCC(=O)*; dDab = NCC[C@@H](N)C(=O)O; Heptanoyl = CCCCCCC(=O)*; Octanoyl = CCCCCCCC(=O)*; Dab = NCC[C@H](N)C(=O)O

How the values were obtained:
A. baumannii ATCC17978 [1] = test: CHIR-090 inhibition assay, growth curves; format: cell-based, Acinetobacter baumannii; conditions: 48 h growth curve
[2] = system: A. baumannii SM1536 (pMQ124xlab1-mcr-1); test: MIC, microbial susceptibility assay; format: cell-based, Acinetobacter baumannii; conditions: for Fold increase in MIC: A. baumannii SM1536 upon introduction of mcr-1
[3] = system: A. baumannii 0301 (mcr-1); test: MIC, microbial susceptibility assay; format: cell-based, Acinetobacter baumannii; conditions: A. baumannii 0301 upon introduction of mcr-1
[4] = system: K. pneumoniae ATCC13883 (pMQ124-mcr-1); conditions: for Fold increase in MIC: K. pneumoniae 13883 upon introduction of mcr-1; for MIC: n=2
[5] = system: E. cloacae ATCC13047 (ΔphoP/Q+phoP/Q); conditions: for Fold increase in MIC: E. cloacae ATCC13047 upon introduction of phoP/Q; for MIC: n=2
[6] = system: K. pneumoniae 0497 (mcr-1); conditions: n=2
[7] = system: E. cloacae ATCC13047 (ΔphoP/Q); conditions: n=2
A. baumannii 0287 = conditions: XDR A. baumannii 0287, mcr-1 −; ref CDC & FDA Antibiotic Resistant Isolate Bank; cited from earlier work
A. baumannii 0295 = conditions: XDR A. baumannii 0295, mcr-1 −; ref CDC & FDA Antibiotic Resistant Isolate Bank; cited from earlier work
A. baumannii 0301 = conditions: XDR A. baumannii 0301, mcr-1 −; ref CDC & FDA Antibiotic Resistant Isolate Bank; cited from earlier work
A. baumannii 0286 = conditions: XDR A. baumannii 0286, mcr-1 −; ref CDC & FDA Antibiotic Resistant Isolate Bank; cited from earlier work
A. baumannii 0282 = conditions: XDR A. baumannii 0282, mcr-1 −; ref CDC & FDA Antibiotic Resistant Isolate Bank; cited from earlier work
A. baumannii 0296 = conditions: XDR A. baumannii 0296, mcr-1 −; ref CDC & FDA Antibiotic Resistant Isolate Bank; cited from earlier work
E. faecium Com15 = test: MIC, microbial susceptibility assay; format: cell-based; conditions: n=2
S. aureus SH1000 = test: MIC, microbial susceptibility assay; format: cell-based; conditions: n=2
A. baumannii ATCC17978 [8] = test: MIC, microbial susceptibility assay; format: cell-based, Acinetobacter baumannii; conditions: n=2
P. aeruginosa PA01 = test: MIC, microbial susceptibility assay; format: cell-based, Pseudomonas aeruginosa; conditions: n=2
E. cloacae 0150 = test: MIC, microbial susceptibility assay; format: cell-based, Enterobacter cloacae; conditions: n=2
[9] = system: S. typhimurium 0635 (mcr-1); test: MIC, microbial susceptibility assay; format: cell-based; conditions: S. typhimurium 0635, mcr-1 clinical isolate; n=2
[10] = system: A. baumannii ATCC17978 (pMQ124xlab1-mcr-1); test: MIC, microbial susceptibility assay; format: cell-based, Acinetobacter baumannii; conditions: n=2
[11] = system: pairs of colistin sensitive and resistant strains of K. pneumoniae and A. baumannii (mcr-1 plasmid); format: cell-based
K. pneumoniae 10031 = conditions: n=2
K. pneumoniae ATCC13883 = conditions: n=2
A. baumannii SM1536 = conditions: n=2
P. vulgaris 49132 = conditions: Proteus vulgaris, intrinsically colistin resistant (L-Ara4N)

## C[C@@H](O)[C@H](NC(=O)c1ccc(C#Cc2ccc(CN3CCOCC3)cc2)cc1)C(=O)NO [CHIR-090]
A. baumannii ATCC17978 [1]
  A. baumannii growth with CHIR-090 alone: does not inhibit A. baumannii growth

## CCCCCCC(=O)N[C@@H](CCN)C(=O)N[C@H](C(=O)N[C@H](CO)C(=O)N[C@H]1CCNC(=O)[C@H](CC(C)C)NC(=O)[C@H](CCN)NC(=O)[C@H](CCN)NC(=O)[C@H]([C@@H](C)CC)NC(=O)[C@@H](CC(C)C)NC(=O)[C@H](CCN)NC1=O)[C@@H](C)O [L1] (Heptanoyl-[Dab]T[dS][Dab][Dab][dL]I[Dab][Dab]L; lactam 4-C; N-terminus assumed)
[2]
  Fold increase in MIC: 8
[3]
  Fold increase in MIC: 2

## CCCCCCCC(=O)N[C@@H](CCN)C(=O)N[C@H](C(=O)N[C@H](CO)C(=O)N[C@H]1CCNC(=O)[C@H](CC(C)C)NC(=O)[C@H](CCN)NC(=O)[C@H](CCN)NC(=O)[C@H]([C@@H](C)CC)NC(=O)[C@@H](CC(C)C)NC(=O)[C@H](CCN)NC1=O)[C@@H](C)O [L2] (Octanoyl-[Dab]T[dS][Dab][Dab][dL]I[Dab][Dab]L; lactam 4-C; N-terminus assumed)
[2]
  Fold increase in MIC: 8
[3]
  Fold increase in MIC: 2

## CCCCCCCCC(=O)N[C@@H](CCN)C(=O)N[C@H](C(=O)N[C@H](CO)C(=O)N[C@H]1CCNC(=O)[C@H](CC(C)C)NC(=O)[C@H](CCN)NC(=O)[C@H](CCN)NC(=O)[C@H]([C@@H](C)CC)NC(=O)[C@@H](CC(C)C)NC(=O)[C@H](CCN)NC1=O)[C@@H](C)O [L3] (Nonanoyl-[Dab]T[dS][Dab][Dab][dL]I[Dab][Dab]L; lactam 4-C; N-terminus assumed)
[2]
  Fold increase in MIC: 4
[3]
  Fold increase in MIC: 2

## CCCCCCCCCC(=O)N[C@@H](CCN)C(=O)N[C@H](C(=O)N[C@H](CO)C(=O)N[C@H]1CCNC(=O)[C@H](CC(C)C)NC(=O)[C@H](CCN)NC(=O)[C@H](CCN)NC(=O)[C@H]([C@@H](C)CC)NC(=O)[C@@H](CC(C)C)NC(=O)[C@H](CCN)NC1=O)[C@@H](C)O [L4] (Decanoyl-[Dab]T[dS][Dab][Dab][dL]I[Dab][Dab]L; lactam 4-C; N-terminus assumed)
[2]
  Fold increase in MIC: 8
[3]
  Fold increase in MIC: 1

## CCCCCC(O)CC(=O)N[C@@H](CCN)C(=O)N[C@H](C(=O)N[C@H](CO)C(=O)N[C@H]1CCNC(=O)[C@H](CC(C)C)NC(=O)[C@H](CCN)NC(=O)[C@H](CCN)NC(=O)[C@H]([C@@H](C)CC)NC(=O)[C@@H](CC(C)C)NC(=O)[C@H](CCN)NC1=O)[C@@H](C)O (stereo partly drawn) [L5] ({Octanoyl(3-OH)}-[Dab]T[dS][Dab][Dab][dL]I[Dab][Dab]L; lactam 4-C; N-terminus assumed)
[2]
  Fold increase in MIC: 4
[3]
  Fold increase in MIC: 2

## CC[C@H](C)CCCCC(=O)N[C@@H](CCN)C(=O)N[C@H](C(=O)N[C@H](CCN)C(=O)N[C@H]1CCNC(=O)[C@H](CC(C)C)NC(=O)[C@H](CCN)NC(=O)[C@H](CCN)NC(=O)[C@H]([C@@H](C)CC)NC(=O)[C@@H](CC(C)C)NC(=O)[C@H](CCN)NC1=O)[C@@H](C)O [Macolacin-3Dab] (X1-[Dab]T[dDab][Dab][Dab][dL]I[Dab][Dab]L; lactam 4-C)
[4]
  Fold increase in MIC: 8
[5]
  Fold increase in MIC: 4

## CC[C@H](C)CCCCC(=O)N[C@@H](CCN)C(=O)N[C@H](C(=O)N[C@H](CO)C(=O)N[C@H]1CCNC(=O)[C@H]([C@@H](C)O)NC(=O)[C@H](CCN)NC(=O)[C@H](CCN)NC(=O)[C@H]([C@@H](C)CC)NC(=O)[C@@H](CC(C)C)NC(=O)[C@H](CCN)NC1=O)[C@@H](C)O [Macolacin-10Thr] (X1-[Dab]T[dS][Dab][Dab][dL]I[Dab][Dab]T; lactam 4-C)
[6]; K. pneumoniae 0497 (mcr-1), SAR table
  MIC: 8 µg/mL (≈ 6.92 µM)
[4]; K. pneumoniae 13883 (mcr-1), SAR table
  MIC: 64 µg/mL (≈ 55.3 µM)
[4]
  Fold increase in MIC: 64
[7]; E. cloacae ATCC13047 (Δ phoP/Q), SAR table
  MIC: 1 µg/mL (≈ 0.865 µM)
[5]; E. cloacae ATCC13047 (Δ phoP/Q+phoP/Q), SAR table
  MIC: 16 µg/mL (≈ 13.8 µM)
[5]
  Fold increase in MIC: 16

## C[C@@H](O)[C@H]1C(=O)N2C(C(=O)O)=C(S[C@@H]3CN[C@H](C(=O)N(C)C)C3)[C@H](C)[C@H]12 [Meropenem]
A. baumannii 0287
  MIC: >8 µg/mL
A. baumannii 0295
  MIC: >8 µg/mL
A. baumannii 0301
  MIC: >8 µg/mL
A. baumannii 0286
  MIC: >8 µg/mL
A. baumannii 0282
  MIC: >8 µg/mL
A. baumannii 0296
  MIC: >8 µg/mL

## CN(C)c1ccc(O)c2c1C[C@H]1C[C@H]3[C@H](N(C)C)C(O)=C(C(N)=O)C(=O)[C@@]3(O)C(O)=C1C2=O [Minocycline]
A. baumannii 0287
  MIC: <=4 μg/ml
A. baumannii 0295
  MIC: 16 µg/mL (≈ 35 µM)
A. baumannii 0301
  MIC: 16 µg/mL (≈ 35 µM)
A. baumannii 0286
  MIC: 8 µg/mL (≈ 17.5 µM)
A. baumannii 0282
  MIC: 8 µg/mL (≈ 17.5 µM)
A. baumannii 0296
  MIC: <=4 μg/ml

## CCN1CCN(C(=O)N[C@@H](C(=O)N[C@@H]2C(=O)N3[C@@H]2SC(C)(C)[C@@H]3C(=O)O)c2ccccc2)C(=O)C1=O [Piperacillin]
A. baumannii 0287
  MIC: >128 µg/mL
A. baumannii 0295
  MIC: >128 µg/mL
A. baumannii 0301
  MIC: >128 µg/mL
A. baumannii 0286
  MIC: >128 µg/mL
A. baumannii 0282
  MIC: >128 µg/mL
A. baumannii 0296
  MIC: >128 µg/mL

## CN(C)[C@@H]1C(O)=C(C(N)=O)C(=O)[C@@]2(O)C(O)=C3C(=O)c4c(O)cccc4[C@@](C)(O)[C@H]3C[C@@H]12 [Tetracycline]
A. baumannii 0287
  MIC: >32 µg/mL
A. baumannii 0295
  MIC: >32 µg/mL
A. baumannii 0301
  MIC: >32 µg/mL
A. baumannii 0286
  MIC: >32 µg/mL
A. baumannii 0282
  MIC: >32 µg/mL
A. baumannii 0296
  MIC: 32 µg/mL (≈ 72 µM)

## COc1cc(Cc2cnc(N)nc2N)cc(OC)c1OC [Trimethoprim]
A. baumannii 0287
  MIC: >8 µg/mL
A. baumannii 0295
  MIC: >8 µg/mL
A. baumannii 0301
  MIC: >8 µg/mL
A. baumannii 0286
  MIC: >8 µg/mL
A. baumannii 0282
  MIC: >8 µg/mL
A. baumannii 0296
  MIC: >8 µg/mL

## Polymyxin B
E. faecium Com15
  MIC: >128 µg/mL
S. aureus SH1000
  MIC: >128 µg/mL
A. baumannii ATCC17978 [8]; A. baumannii 17978, ESKAPE panel
  MIC: 0.5 µg/mL
A. baumannii ATCC17978 [8]; A. baumannii ATCC17978, mcr-1 engineered pairs
  MIC: 0.5 µg/mL
P. aeruginosa PA01
  MIC: 2 µg/mL
E. cloacae 0150
  MIC: 1 µg/mL
[9]
  MIC: 16 µg/mL
[10]
  MIC: 16 µg/mL
[2]; A. baumannii SM1536 (pMQ124xlab1-mcr-1), n=2
  MIC: 128 µg/mL
[11]
  increase in MIC upon mcr-1 expression: ≥ 32 fold
K. pneumoniae 10031
  MIC: 1 µg/mL
[6]; K. pneumoniae 0497, mcr-1 clinical isolate
  MIC: 32 µg/mL
K. pneumoniae ATCC13883
  MIC: 1 µg/mL
[4]
  Fold increase in MIC: 128
[4]; K. pneumoniae ATCC13883 (pMQ124-mcr-1)
  MIC: 128 µg/mL
A. baumannii SM1536
  MIC: 1 µg/mL
[7]; E. cloacae ATCC13047 (ΔphoP/Q)
  MIC: 1 µg/mL
[5]; E. cloacae ATCC13047 (ΔphoP/Q+phoP/Q)
  MIC: 32 µg/mL
[5]
  Fold increase in MIC: 32
[5]; E. cloacae phoP/Q deletion rescued with phoP/Q plasmid
  susceptibility of strain: resistant
P. vulgaris 49132
  MIC: > 128 µg/mL
